pIC50: −log10 of the molar value.

From patent US20250074910A1, “MENIN INHIBITOR AND USE THEREOF” (HITGEN INC., priority 2021, published 2025) come the findings set out here.

One assay deals with MOLM-13. The assay is described as follows: Cell proliferation inhibition (CellTiter-Glo), MOLM-13. It is filed as cell-based. As to conditions: MOLM-13 cells. As for the experimental part: (§1) Test Example 2: Test of the Inhibitory Ability of Menin-MLL Interaction Inhibitors on Cell Proliferation
(§2) The inhibitory ability of the compounds of the present disclosure on the proliferation of tumor cell lines (including cell lines containing MLL fusion protein such as MV4-11, MOLM-13, THP-1 and NOMO-1, control cell lines without MLL fusion protein such as HL-60, K562 and MOLM-16, and cell lines containing NPM1 mutation such as OCI-AML3) was evaluated by using the cell viability analysis method. The cells were plated in 96-well plates at a certain concentration (e.g., 5,000-20,000 cells/well), and then an equal volume of culture medium containing 2 times the final concentration of the test compound (the final concentration ranging 10 from 1 nM to 10 μM) was added. The plates were placed in an incubator and cultured at 37° C. and 5% CO2 for 72-168 h. Before the test, an equal volume of CellTiter-Glo® Luminescent reagent was added, and the plate was incubated at room temperature for 10 min before detection using an ELISA reader (BMG LABTECH). The data were analyzed using GraphPad Prism software to obtain the IC50 value and compound fitting curve. The control compound 1 was prepared by referring to the method of Example 64 in WO2017214367.

Assay [1] concerns the target Menin/MLL-4-43 peptide interaction (Homo sapiens (Human), UniProt O00255). The assay is described as follows: Menin-MLL interaction inhibitory activity assay (fluorescence polarization competition). It is filed as binding. Conditions: FITC-MLL4-43-peptide, Menin recombinant protein. As for the experimental part: Test Example 1: Menin-MLL Interaction Inhibitory Activity Assay
The inhibition of Menin/MLL-4-43 peptide interaction by small molecule inhibitors was quantitatively detected by fluorescence polarization competition assay. The experiment was performed in a 384-well plate (Corning, Cat #3575) using a reaction buffer consisting of 50 mM Tris, pH 7.5, 50 mM NaCl, and 1 mM DTT. A 40 μL reaction system included 10 μL of 8 nM Menin recombinant protein and 10 μL of the test compound at different concentrations. The compound was pre-incubated with Menin protein for 15 min, and then 20 μL of 10 nM FITC-MLL4-43-peptide was added. After incubation on a shaker at 25° C. for 60 min, the fluorescence polarization signal (FP 485 520 520) was read using BMG PHERAStar detection. The experimental data was analyzed and processed by GraphPad Prism 6 software to obtain the IC50 value. The control compound 1 was prepared by referring to the method of Example 64 in WO2017214367.

Another assay concerns MV4-11. The assay is described as follows: Cell proliferation inhibition (CellTiter-Glo), MV4-11. It is filed as cell-based. Conditions: MV4-11 cells. The method, then: as §1, §2
In the next assay the test system is OCI-AML3. The assay is described as follows: Cell proliferation inhibition (CellTiter-Glo), OCI-AML3 (NPM1 mutation). It is filed as cell-based. Conditions: OCI-AML3 cells. As for the experimental part:
as §1, §2

Chain of Menin/MLL-4-43 peptide interaction (O00255 whole entry, species assumed): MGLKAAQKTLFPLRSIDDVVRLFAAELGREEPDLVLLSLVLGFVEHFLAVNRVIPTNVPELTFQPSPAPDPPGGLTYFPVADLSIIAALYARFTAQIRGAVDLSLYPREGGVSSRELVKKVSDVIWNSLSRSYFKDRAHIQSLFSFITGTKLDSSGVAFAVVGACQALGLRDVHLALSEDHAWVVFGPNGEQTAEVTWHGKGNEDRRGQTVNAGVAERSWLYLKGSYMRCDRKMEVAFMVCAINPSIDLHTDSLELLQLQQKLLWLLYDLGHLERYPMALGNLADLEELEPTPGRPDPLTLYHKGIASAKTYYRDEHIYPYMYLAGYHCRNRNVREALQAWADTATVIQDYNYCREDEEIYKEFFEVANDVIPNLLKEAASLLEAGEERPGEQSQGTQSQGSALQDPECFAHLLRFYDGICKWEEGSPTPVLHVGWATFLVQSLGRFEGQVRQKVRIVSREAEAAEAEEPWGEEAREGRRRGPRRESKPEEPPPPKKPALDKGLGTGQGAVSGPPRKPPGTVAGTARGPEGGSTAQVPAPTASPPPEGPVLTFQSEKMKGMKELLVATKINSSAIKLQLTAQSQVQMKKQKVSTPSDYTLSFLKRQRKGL

In the case of `CC(C)N(C(=O)c1cc(F)ccc1Oc1nncnc1N1CC2(CCN(C[C@H]3CC[C@]4(CC3)CC(C)(C)C(=O)N4)CC2)C1)C1CCC1` [Example 32], the GI50 was determined as 179 nM in the assay on MOLM-13 (Homo sapiens, MOLM-13, 168 h); 17.8 nM in the assay on MV4-11 (Homo sapiens, MV4-11, 72 h); 63.6 nM in the assay with OCI-AML3 (Homo sapiens, OCI-AML-3, 168 h). Further, in assay [1], the pIC50 is 7.41.

Take `CC(C)N(C(=O)c1cc(F)ccc1Oc1cncnc1N1CC2(CCN(C[C@H]3CC[C@]4(CC3)CC(C)(C)C(=O)N4)CC2)C1)C(C)C` [Example 22]: the pIC50 in assay [1] is 7.78. Further, the GI50 with MV4-11 (Homo sapiens, MV4-11, 72 h) is 11.3 nM; in the assay with OCI-AML3 (Homo sapiens, OCI-AML-3, 168 h), 24 nM.

As for `CC(C)=C1C[C@]2(CC[C@@H](CN3CCC4(CC3)CN(c3ncnnc3Oc3ccc(F)cc3C(=O)N(C(C)C)C(C)C)C4)CC2)NC1=O` [Example 61], the GI50 in the assay on MOLM-13 (Homo sapiens, MOLM-13, 168 h) is 108 nM; in the assay with MV4-11 (Homo sapiens, MV4-11, 72 h), 23 nM; in the assay with OCI-AML3 (Homo sapiens, OCI-AML-3, 168 h), 72.1 nM. In addition, the pIC50 in assay [1] was 7.59.

With `[2H]C([2H])([2H])C1C[C@]2(CC[C@@H](CN3CCC4(CC3)CN(c3ncnnc3Oc3ccc(F)cc3C(=O)N(C(C)C)C(C)C)C4)CC2)NC1=O` (single isomer, unassigned) [Example 43-2], the concentration for 50% growth inhibition (GI50) with MOLM-13 (168 h) was found to be 137 nM; in the assay with MV4-11 (72 h), 90 nM; in the assay on OCI-AML3 (168 h), 80.6 nM. Further, the pIC50 in assay [1] was 7.31.

Consider `C=C1C[C@]2(CC[C@@H](CN3CCC4(CC3)CN(c3ncncc3Oc3ccc(F)cc3C(=O)N(C(C)C)C(C)C)C4)CC2)NC1=O` [Example 62], for which, in assay [1], the negative-log IC50 (pIC50) was 7.70. In the assay with MV4-11 (Homo sapiens, MV4-11, 72 h), growth was halved (GI50) at 34.8 nM.

As for `CCN(C(=O)c1cc(F)ccc1Oc1cncnc1N1CC2(CCN(CC3CC4CCC3CC43CCC(=O)N3)CC2)C1)C(C)C` (single isomer, unassigned) [Example 3-2], the pIC50 in assay [1] was 6.95. Besides, in the assay with MV4-11 (72 h), growth was halved (GI50) at 86.1 nM.

As to `CCN(C(=O)c1cc(F)ccc1Oc1cncnc1N1CC2(CCN(CC3CC4CCC3CC43CCC(=O)N3)CC2)C1)C(C)C` (single isomer, unassigned) [Example 3], the pIC50 in assay [1] is 7.62. Moreover, the GI50 in the assay with MV4-11 (Homo sapiens, MV4-11, 72 h) turned out to be 94.7 nM.

For the compound `CCN(C(=O)c1cc(F)ccc1Oc1cncnc1N1CC2(CCN(CC3CC4CCC3CC43CCC(=O)N3)CC2)C1)C(C)C` (single isomer, unassigned) [Example 3-1], the 50% growth inhibitory concentration (GI50) in the assay on MOLM-13 (Homo sapiens, MOLM-13, 168 h) stood at 47.4 nM; in the assay on MV4-11 (72 h), 324 nM; in the assay on OCI-AML3 (Homo sapiens, OCI-AML-3, 168 h), 66.5 nM. The pIC50 in assay [1] was 7.54.

As for `CCN(C(=O)c1cc(F)ccc1Oc1nncnc1N1CC2(CCN(C[C@H]3CC[C@]4(CC3)CC(C)C(=O)N4)CC2)C1)C(C)C` (single isomer, unassigned) [Example 40-2], the pIC50 in assay [1] was 7.46. The compound also gave a GI50 in the assay with MV4-11 (72 h) of 82.8 nM.

As to `CC(C)N(C(=O)c1cc(F)ccc1Oc1nncnc1N1CC2(CCN(CC3CCC4(CC3)CC3(CC3)C(=O)N4)CC2)C1)C(C)C` (single isomer, unassigned) [Example 44-1], the GI50 in the assay with MOLM-13 (168 h) amounted to 111 nM; with MV4-11 (Homo sapiens, MV4-11, 72 h), 16.7 nM; with OCI-AML3 (168 h), 60.5 nM. The pIC50 in assay [1] was 7.31.

Consider `CC(C)N(C(=O)c1cc(F)ccc1Oc1nncnc1N1CC2(CCN(CC3CC4CCC3CC43COC(=O)N3)CC2)C1)C(C)C` (single isomer, unassigned) [Example 52-1b], for which, in assay [1], the pIC50 is 7.41. The concentration for 50% growth inhibition (GI50) came out at 11.9 nM in the assay with MV4-11 (72 h) and 40 nM with OCI-AML3 (Homo sapiens, OCI-AML-3, 168 h).

Consider `[2H]C([2H])([2H])C1(C([2H])([2H])[2H])C[C@]2(CC[C@@H](CN3CCC4(CC3)CN(c3ncnnc3Oc3ccc(F)cc3C(=O)N(CC)C(C)C)C4)CC2)NC1=O` [Example 33], for which the pIC50 in assay [1] is 8.08. In the assay on MV4-11 (Homo sapiens, MV4-11, 72 h), this compound returned a GI50 of 20.5 nM.

As to `CC(C)N(C(=O)c1cc(F)ccc1Oc1nncnc1N1CC2(CCN(CC3CC4CCC3CC43COC(=O)N3)CC2)C1)C(C)C` (single isomer, unassigned) [Example 52-2b], in assay [1], the pIC50 was 6.70. In the assay on OCI-AML3 (168 h), this compound registered a GI50 of 50.6 nM.

Regarding `CCN(C(=O)c1cc(F)ccc1Oc1nncnc1N1CC2(CCN(C[C@H]3CC[C@]4(CC3)CC(C)C(=O)N4)CC2)C1)C(C)C` (single isomer, unassigned) [Example 40-1], the GI50 in the assay on MOLM-13 (Homo sapiens, MOLM-13, 168 h) stood at 122 nM; with MV4-11 (72 h), 41.2 nM; in the assay with OCI-AML3 (Homo sapiens, OCI-AML-3, 168 h), 199 nM. Also, the negative logarithm of the IC50 (pIC50) in assay [1] was 7.83.

In the case of `CC(C)N(C(=O)c1cc(F)ccc1Oc1cncnc1N1CC2(CCN(CC3CC4CCC3CC43COC(=O)N3)CC2)C1)C(C)C` (single isomer, unassigned) [Example 51-1b], in assay [1], the pIC50 was 7.33. For the same compound, the GI50 in the assay with MV4-11 (Homo sapiens, MV4-11, 72 h) amounted to 16.1 nM; with OCI-AML3 (Homo sapiens, OCI-AML-3, 168 h), 20.3 nM.

In the case of `CC(C)N(C(=O)c1cc(F)ccc1Oc1nncnc1N1CC2(CCN(C[C@H]3CC[C@]4(CC3)CC(C)(C)C(=O)N4)CC2)C1)C(C)C` [Example 27], the pIC50 in assay [1] is 7.79. Moreover, the GI50 in the assay with MV4-11 (Homo sapiens, MV4-11, 72 h) stood at 13 nM; in the assay on OCI-AML3 (Homo sapiens, OCI-AML-3, 168 h), 32.1 nM.

For `CCN(C(=O)c1cc(F)ccc1Oc1cncnc1N1CC2(CCN(C[C@H]3CC[C@]4(CC3)C[C@@H](COC)C(=O)N4)CC2)C1)C(C)C` [Example 35], in assay [1], the pIC50 is 8.44. The GI50 with MV4-11 (Homo sapiens, MV4-11, 72 h) stood at 11.7 nM.

On to `CCN(C(=O)c1cc(F)ccc1Oc1cncnc1N1CC2(CCN(CC3CC4CCC3CC43CCC(=O)N3)CC2)C1)C(C)C` (single isomer, unassigned) [Example 4], for which the pIC50 in assay [1] is 7.54. In addition, it took 61 nM to inhibit growth with MV4-11 (72 h) by half (GI50).

Turning to `CC1C[C@]2(CC[C@@H](CN3CCC4(CC3)CN(c3ncncc3Oc3ccc(F)cc3C(=O)N(C(C)C)C(C)C)C4)CC2)NC1=O` (some centres unmarked) [Example 39], the negative-log IC50 (pIC50) in assay [1] was 7.62. Further, growth in the assay with MV4-11 (Homo sapiens, MV4-11, 72 h) was halved (GI50) at 20 nM.

In the case of `CCN(C(=O)c1cc(F)ccc1Oc1cncnc1N1CC2(CCN(CC3CC4CCC3CC43COC(=O)N3)CC2)C1)C(C)C` (single isomer, unassigned) [Example 50-2], the pIC50 in assay [1] was 7.40. Also, it took 69.1 nM to inhibit growth with MV4-11 (72 h) by half (GI50).

On to `CC(C)N(C(=O)c1cc(F)ccc1Oc1cncnc1N1CC2(CCN(CC3CC4CCC3CC43CCC(=O)N3)CC2)C1)C(C)C` (single isomer, unassigned) [Example 13-2], for which the pIC50 in assay [1] was 7.60. In the assay with MV4-11 (72 h), this compound came in with a GI50 of 49.7 nM.

Consider `CCN(C(=O)c1cc(F)ccc1Oc1cncnc1N1CC2(CCN(C[C@H]3CC[C@]4(CC3)CC(C)(C)C(=O)N4)CC2)C1)C(C)C` [Example 21], for which the negative logarithm of the IC50 (pIC50) in assay [1] is 8.01. The GI50 in the assay on MV4-11 (Homo sapiens, MV4-11, 72 h) worked out at 13.1 nM; in the assay on OCI-AML3 (Homo sapiens, OCI-AML-3, 168 h), 39.8 nM.

As to `CC(C)N(C(=O)c1cc(F)ccc1Oc1nncnc1N1CC2(CCN(CC3CC4CCC3CC43COC(=O)N3)CC2)C1)C(C)C` (single isomer, unassigned) [Example 52-2a], in assay [1], the pIC50 was 7.09. The GI50 came out at 43.6 nM in the assay with MV4-11 (72 h) and 47.9 nM with OCI-AML3 (168 h).

As for `CC(C)N(C(=O)c1cc(F)ccc1Oc1cncnc1N1CC2(CCN(CC3CC4CCC3CC43COC(=O)N3)CC2)C1)C(C)C` (single isomer, unassigned) [Example 51-2a], the pIC50 in assay [1] is 7.15. Also, the GI50 came out at 11.7 nM in the assay on MV4-11 (72 h) and 31.5 nM in the assay with OCI-AML3 (168 h).

In the case of `CCN(C(=O)c1cc(F)ccc1Oc1cncnc1N1CC2(CCN(CC3CC4CCC3CC43COC(=O)N3)CC2)C1)C(C)C` (single isomer, unassigned) [Example 50-1], in assay [1], the pIC50 was 7.44. In the assay with MV4-11 (Homo sapiens, MV4-11, 72 h), this compound registered a GI50 of 74.4 nM.

For `CCN(C(=O)c1cc(F)ccc1Oc1cncnc1N1CC2(CCN(CC3CC4CCC3CC43CCC(=O)N3)CC2)C1)C(C)C` (single isomer, unassigned) [Example 4-1], the negative logarithm of the IC50 (pIC50) in assay [1] is 7.92. The same compound had a GI50 in the assay on MV4-11 (72 h) of 55 nM.
